In patent publication US20210070748A1, “INHIBITORS OF BRUTONS TYROSINE KINASE” (Pharmacyclics LLC, priority 2015, published 2021) one finds IC50 data, which are given here for 13 compounds.

Assay type in all cases: biochemical
One assay deals with LCK (Homo sapiens, UniProt P06239). As to the kind of experiment: Inhibition of a panel of kinases, in vitro HotSpot kinase assay: LCK. As to conditions: D-compounds panel data; 1 μM ATP; read-out: IC50 LCK.
The next assay deals with T1, ITK (Homo sapiens, UniProt Q08881).
T1 sequence (Q08881 1-620): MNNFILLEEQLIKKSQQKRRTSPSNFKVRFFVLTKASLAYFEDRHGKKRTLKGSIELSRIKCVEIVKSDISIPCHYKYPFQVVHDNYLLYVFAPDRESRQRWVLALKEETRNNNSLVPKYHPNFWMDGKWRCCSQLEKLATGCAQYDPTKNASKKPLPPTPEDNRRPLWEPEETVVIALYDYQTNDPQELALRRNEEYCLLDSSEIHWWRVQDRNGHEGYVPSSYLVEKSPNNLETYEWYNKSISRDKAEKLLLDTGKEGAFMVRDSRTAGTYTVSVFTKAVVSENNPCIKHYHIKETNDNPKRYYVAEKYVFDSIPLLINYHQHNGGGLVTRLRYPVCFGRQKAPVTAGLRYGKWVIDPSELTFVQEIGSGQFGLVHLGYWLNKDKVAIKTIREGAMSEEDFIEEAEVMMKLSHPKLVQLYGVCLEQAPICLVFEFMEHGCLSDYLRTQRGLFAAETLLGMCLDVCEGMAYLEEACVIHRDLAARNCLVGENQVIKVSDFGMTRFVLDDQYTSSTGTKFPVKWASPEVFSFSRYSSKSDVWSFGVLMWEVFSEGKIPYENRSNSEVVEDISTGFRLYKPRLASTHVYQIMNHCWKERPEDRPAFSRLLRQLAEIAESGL
As to the kind of experiment: Inhibition of a panel of kinases, in vitro HotSpot kinase assay: ITK. Conditions: D-compounds panel data; 1 μM ATP. Here is the method:
(§1) The degree of inhibition of a panel of kinases is determined using the in vitro HotSpot kinase assay (purified enzymes, ^33P-ATP, an appropriate substrate and 1 μM ATP).

The target of a further assay is SRC (Homo sapiens, UniProt P12931). The assay is described as follows: Inhibition of a panel of kinases, in vitro HotSpot kinase assay: SRC. As to conditions: D-compounds panel data; 1 μM ATP. Here is the method:
as §1

The target of a further assay is T2, BTK-WT (Homo sapiens, UniProt Q06187).
T2 construct: purified from insect cells as a full-length construct containing an N-terminal 6X-His tag; His6 (N); made in house; host or cells: insect cells (baculovirus Sf21 in Method B)
T2 sequence (Q06187 whole entry): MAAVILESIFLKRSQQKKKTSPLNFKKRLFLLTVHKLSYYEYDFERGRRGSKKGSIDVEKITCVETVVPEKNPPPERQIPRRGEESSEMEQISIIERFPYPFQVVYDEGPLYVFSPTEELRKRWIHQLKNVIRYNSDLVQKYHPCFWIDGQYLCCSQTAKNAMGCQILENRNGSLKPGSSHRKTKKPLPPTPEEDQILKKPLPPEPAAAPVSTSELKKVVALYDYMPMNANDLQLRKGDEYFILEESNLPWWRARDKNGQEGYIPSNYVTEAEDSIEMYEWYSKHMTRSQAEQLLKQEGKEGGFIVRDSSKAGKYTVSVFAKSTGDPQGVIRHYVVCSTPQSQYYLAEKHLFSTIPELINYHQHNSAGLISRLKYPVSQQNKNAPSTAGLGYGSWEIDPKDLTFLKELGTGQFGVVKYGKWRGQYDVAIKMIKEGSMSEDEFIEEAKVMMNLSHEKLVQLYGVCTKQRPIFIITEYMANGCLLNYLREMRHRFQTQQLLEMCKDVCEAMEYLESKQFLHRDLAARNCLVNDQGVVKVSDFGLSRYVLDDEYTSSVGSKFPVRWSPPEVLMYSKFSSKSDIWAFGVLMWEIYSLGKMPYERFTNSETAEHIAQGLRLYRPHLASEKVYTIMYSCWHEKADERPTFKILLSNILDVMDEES
As to the kind of experiment: Btk in vitro inhibitory activity (one of Method A TR-FRET, Method B electrophoretic mobility shift, Method C radiometric filter binding). As to conditions: D-compounds panel data; read-out: IC50 BTK-WT.

A further assay addresses T3, TEC (Homo sapiens, UniProt P42680).
T3 sequence (P42680 1-631): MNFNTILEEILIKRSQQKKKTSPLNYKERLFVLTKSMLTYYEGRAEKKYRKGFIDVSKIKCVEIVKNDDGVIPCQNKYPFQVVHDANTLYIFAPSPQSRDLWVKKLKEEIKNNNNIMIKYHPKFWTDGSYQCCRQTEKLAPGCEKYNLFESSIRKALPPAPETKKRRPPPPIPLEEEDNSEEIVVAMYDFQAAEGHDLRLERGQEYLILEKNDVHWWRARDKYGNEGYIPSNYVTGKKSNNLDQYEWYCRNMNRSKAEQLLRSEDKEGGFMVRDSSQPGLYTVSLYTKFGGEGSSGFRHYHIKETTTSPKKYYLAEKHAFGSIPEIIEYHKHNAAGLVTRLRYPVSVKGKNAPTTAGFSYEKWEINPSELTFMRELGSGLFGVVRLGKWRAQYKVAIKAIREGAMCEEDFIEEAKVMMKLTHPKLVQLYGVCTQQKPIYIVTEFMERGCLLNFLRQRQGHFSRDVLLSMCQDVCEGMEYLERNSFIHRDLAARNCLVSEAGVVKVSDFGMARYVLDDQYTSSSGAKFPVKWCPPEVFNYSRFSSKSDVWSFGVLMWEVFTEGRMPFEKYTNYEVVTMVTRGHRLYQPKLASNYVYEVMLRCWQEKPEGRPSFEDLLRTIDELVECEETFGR
The assay is described as follows: Inhibition of a panel of kinases, in vitro HotSpot kinase assay: TEC. As to conditions: D-compounds panel data; 1 μM ATP. As to the method:
as §1

Structures are written as SMILES.

LCK, sequence (P06239 whole entry): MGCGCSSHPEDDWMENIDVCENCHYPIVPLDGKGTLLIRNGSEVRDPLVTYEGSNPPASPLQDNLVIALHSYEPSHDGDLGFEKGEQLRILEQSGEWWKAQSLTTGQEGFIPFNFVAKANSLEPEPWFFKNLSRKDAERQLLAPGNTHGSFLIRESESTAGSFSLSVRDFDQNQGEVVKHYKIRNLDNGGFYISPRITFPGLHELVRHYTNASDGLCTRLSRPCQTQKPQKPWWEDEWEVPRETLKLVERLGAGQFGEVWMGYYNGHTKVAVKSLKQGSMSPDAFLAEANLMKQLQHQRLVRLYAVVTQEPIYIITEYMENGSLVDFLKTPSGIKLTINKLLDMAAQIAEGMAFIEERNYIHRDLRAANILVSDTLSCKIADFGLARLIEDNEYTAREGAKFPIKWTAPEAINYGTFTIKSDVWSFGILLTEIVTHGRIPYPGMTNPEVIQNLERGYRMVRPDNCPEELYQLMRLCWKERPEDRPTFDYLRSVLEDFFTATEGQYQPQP
SRC, sequence (P12931 whole entry): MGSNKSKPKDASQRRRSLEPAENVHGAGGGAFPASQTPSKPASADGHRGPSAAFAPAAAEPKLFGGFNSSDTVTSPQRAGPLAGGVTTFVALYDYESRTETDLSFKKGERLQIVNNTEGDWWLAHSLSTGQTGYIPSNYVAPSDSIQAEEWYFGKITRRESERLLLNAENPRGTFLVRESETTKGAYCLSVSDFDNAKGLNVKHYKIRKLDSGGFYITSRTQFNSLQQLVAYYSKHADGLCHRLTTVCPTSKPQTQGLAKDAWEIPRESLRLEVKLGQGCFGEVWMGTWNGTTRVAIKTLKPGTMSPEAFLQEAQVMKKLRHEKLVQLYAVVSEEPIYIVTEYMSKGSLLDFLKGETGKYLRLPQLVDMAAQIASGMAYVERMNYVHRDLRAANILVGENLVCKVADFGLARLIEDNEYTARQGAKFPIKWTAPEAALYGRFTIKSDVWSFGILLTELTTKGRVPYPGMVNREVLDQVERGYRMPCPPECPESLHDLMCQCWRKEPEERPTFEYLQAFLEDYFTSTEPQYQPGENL

As to `Cc1nc2cc(C(=O)N[C@@H]3CCCN(c4cnc(C(N)=O)c(Nc5cnn(C)c5)n4)[C@@H]3C)ccc2[nH]1` [Example D-261, N-[(2R,3R)-1-{5-carbamoyl-6-[(1-methyl-1H-pyrazol-4-yl)amino]pyrazin-2-yl}-2-methylpiperidin-3-yl]-2-methyl-1H-1,3-benzodiazole-5-carboxamide], the IC50 on LCK was 10 to 100 nM; against ITK it was 100 to 1000 nM; on SRC, 10 to 100 nM; on BTK-WT, ≤ 10 nM; at TEC, ≤ 10 nM.

As for `C[C@@H]1[C@H](NC(=O)c2ccc(C3CC3)cc2)CCCN1c1cnc(C(N)=O)c(Nc2cnn(C)c2F)n1` [Example D-290, 5-[(2R,3R)-3-(4-cyclopropylbenzamido)-2-methylpiperidin-1-yl]-3-[(5-fluoro-1-methyl-1H-pyrazol-4-yl)amino]pyrazine-2-carboxamide], the IC50 at LCK is 1000 to 10000 nM; on ITK it was > 10000 nM; at SRC, 1000 to 10000 nM; on BTK-WT, 10 to 100 nM; at TEC, 100 to 1000 nM.

In the case of `C[C@@H]1[C@H](NC(=O)c2ccc(N(C)C)cc2)CCCN1c1cnc(C(N)=O)c(Nc2cnn(C)c2)n1` [Example D-24, 5-[(2R,3R)-3-[4-(dimethylamino)benzamido]-2-methylpiperidin-1-yl]-3-[(1-methyl-1H-pyrazol-4-yl)amino]pyrazine-2-carboxamide], the IC50 on LCK was 10 to 100 nM; against ITK, 100 to 1000 nM; against SRC it was 100 to 1000 nM; on BTK-WT, ≤ 10 nM; at TEC, ≤ 10 nM.

Turning to `C[C@@H]1[C@H](NC(=O)c2ccc(C(C)(C)O)cc2)CCCN1c1nnc(C(N)=O)c(Nc2cnn(C)c2)n1` [Example D-298, 3-[(2R,3R)-3-[4-(2-hydroxypropan-2-yl)benzamido]-2-methylpiperidin-1-yl]-5-[(1-methyl-1H-pyrazol-4-yl)amino]-1,2,4-triazine-6-carboxamide], the IC50 on LCK was 10 to 100 nM; on ITK, 10 to 100 nM; against SRC, 10 to 100 nM; on BTK-WT, ≤ 10 nM; against TEC, ≤ 10 nM.

Turning to `C[C@@H]1[C@H](NC(=O)c2ccc(C3CC3)cc2)CCCN1c1cnc(C(N)=O)c(Nc2cnn(-c3ccncc3)c2)n1` [Example D-284, 5-[(2R,3R)-3-(4-cyclopropylbenzamido)-2-methylpiperidin-1-yl]-3-{[1-(pyridin-4-yl)-1H-pyrazol-4-yl]amino}pyrazine-2-carboxamide], the IC50 at LCK was 10 to 100 nM; against ITK, 100 to 1000 nM; against SRC, 10 to 100 nM; on BTK-WT, ≤ 10 nM; on TEC, ≤ 10 nM.

With `C[C@@H]1[C@H](NC(=O)c2ccc(C3CC3)cc2)CCCN1c1cnc(C(N)=O)c(Nc2cnn(C3CC3)c2)n1` [Example D-279, 3-[(1-cyclopropyl-1H-pyrazol-4-yl)amino]-5-[(2R,3R)-3-(4-cyclopropylbenzamido)-2-methylpiperidin-1-yl]pyrazine-2-carboxamide], the IC50 is 100 to 1000 nM at LCK; 100 to 1000 nM against ITK; 100 to 1000 nM against SRC; ≤ 10 nM at BTK-WT; ≤ 10 nM on TEC.

With `CC(=O)N1CCC(c2ccc(Nc3nc(N4CCC[C@@H](NC(=O)c5ccc(C6CC6)cc5)[C@H]4C)cnc3C(N)=O)cc2)CC1` [Example D-296, 3-{[4-(1-acetylpiperidin-4-yl)phenyl]amino}-5-[(2R,3R)-3-(4-cyclopropylbenzamido)-2-methylpiperidin-1-yl]pyrazine-2-carboxamide], the IC50 on LCK is 100 to 1000 nM; against ITK, 100 to 1000 nM; on SRC, 10 to 100 nM; at BTK-WT it was ≤ 10 nM; against TEC, 10 to 100 nM.

On to `C[C@@H]1[C@H](NC(=O)c2ccc(C3CC3)cc2)CCCN1c1cnc(C(N)=O)c(Nc2cnn(C3CCN(CC(F)(F)F)CC3)c2)n1` [Example D-293, 5-[(2R,3R)-3-(4-cyclopropylbenzamido)-2-methylpiperidin-1-yl]-3-({1-[1-(2,2,2-trifluoroethyl)piperidin-4-yl]-1H-pyrazol-4-yl}amino)pyrazine-2-carboxamide], for which the IC50 at LCK was > 10000 nM; at ITK it was 1000 to 10000 nM; at SRC it was 10 to 100 nM; at BTK-WT it was ≤ 10 nM; at TEC, 10 to 100 nM.

Take `C[C@@H]1[C@H](NC(=O)c2ccc(C3CC3)cc2)CCCN1c1nnc(C(N)=O)c(Nc2cnn(C)c2)n1` [Example D-277, 3-[(2R,3R)-3-(4-cyclopropylbenzamido)-2-methylpiperidin-1-yl]-5-[(1-methyl-1H-pyrazol-4-yl)amino]-1,2,4-triazine-6-carboxamide]: the IC50 was 10 to 100 nM on LCK; 100 to 1000 nM against ITK; 10 to 100 nM at SRC; ≤ 10 nM on BTK-WT; ≤ 10 nM on TEC.

Turning to `C[C@@H]1[C@H](NC(=O)c2ccc(C3COC3)cc2)CCCN1c1cnc(C(N)=O)c(Nc2cnn(C)c2)n1` [Example D-23, 3-[(1-methyl-1H-pyrazol-4-yl)amino]-5-[(2R,3R)-2-methyl-3-[4-(oxetan-3-yl)benzamido]piperidin-1-yl]pyrazine-2-carboxamide], the IC50 at LCK was 100 to 1000 nM; against ITK it was 100 to 1000 nM; at SRC it was 10 to 100 nM; at BTK-WT, ≤ 10 nM; at TEC it was ≤ 10 nM.

For `C[C@@H]1[C@H](NC(=O)c2ccc(C3CC3)cc2)CCCN1c1cnc(C(N)=O)c(Nc2cnn(C3CCN(C(=O)C4CC4)CC3)c2)n1` [Example D-288, 3-{[1-(1-cyclopropanecarbonylpiperidin-4-yl)-1H-pyrazol-4-yl]amino}-5-[(2R,3R)-3-(4-cyclopropylbenzamido)-2-methylpiperidin-1-yl]pyrazine-2-carboxamide], the IC50 on LCK was 100 to 1000 nM; against ITK it was 100 to 1000 nM; against SRC, 10 to 100 nM; on BTK-WT it was ≤ 10 nM; against TEC it was ≤ 10 nM.

Regarding `C[C@@H]1[C@H](NC(=O)c2ccc(C3CC3)cc2)CCCN1c1cnc(C(N)=O)c(Nc2cnn(C3CCN(C(=O)C4(C)COC4)CC3)c2)n1` [Example D-289, 5-[(2R,3R)-3-(4-cyclopropylbenzamido)-2-methylpiperidin-1-yl]-3-({1-[1-(3-methyloxetane-3-carbonyl)piperidin-4-yl]-1H-pyrazol-4-yl}amino)pyrazine-2-carboxamide], the IC50 was 10 to 100 nM on LCK; 10 to 100 nM on ITK; ≤ 10 nM against SRC; ≤ 10 nM at BTK-WT; ≤ 10 nM against TEC.

`Cc1c(Nc2nc(N3CCC[C@@H](NC(=O)c4ccc(C5CC5)cc4)[C@H]3C)cnc2C(N)=O)cnn1C` [Example D-271, 5-[(2R,3R)-3-(4-cyclopropylbenzamido)-2-methylpiperidin-1-yl]-3-[(1,5-dimethyl-1H-pyrazol-4-yl)amino]pyrazine-2-carboxamide]: the IC50 is 1000 to 10000 nM on LCK; > 10000 nM against ITK; 1000 to 10000 nM at SRC; 10 to 100 nM on BTK-WT; 1000 to 10000 nM against TEC.
